Source: ChEMBL document CHEMBL1907987, “Human UDP-glucuronosyltransferases: metabolism, expression, and disease” (Annu Rev Pharmacol Toxicol, 2000)
“And” between values parts separate entries of the source, which are not always exact repeats. Identical values can stand only once.

Assays:
[1] = target: T1, UDP-glucuronosyltransferase 2B7 (Homo sapiens, UniProt P16662); assay: Specific activity of expressed human recombinant UGT2B7Y; assay type: ADME; conditions: recombinant enzyme
T1 sequence (P16662 whole entry): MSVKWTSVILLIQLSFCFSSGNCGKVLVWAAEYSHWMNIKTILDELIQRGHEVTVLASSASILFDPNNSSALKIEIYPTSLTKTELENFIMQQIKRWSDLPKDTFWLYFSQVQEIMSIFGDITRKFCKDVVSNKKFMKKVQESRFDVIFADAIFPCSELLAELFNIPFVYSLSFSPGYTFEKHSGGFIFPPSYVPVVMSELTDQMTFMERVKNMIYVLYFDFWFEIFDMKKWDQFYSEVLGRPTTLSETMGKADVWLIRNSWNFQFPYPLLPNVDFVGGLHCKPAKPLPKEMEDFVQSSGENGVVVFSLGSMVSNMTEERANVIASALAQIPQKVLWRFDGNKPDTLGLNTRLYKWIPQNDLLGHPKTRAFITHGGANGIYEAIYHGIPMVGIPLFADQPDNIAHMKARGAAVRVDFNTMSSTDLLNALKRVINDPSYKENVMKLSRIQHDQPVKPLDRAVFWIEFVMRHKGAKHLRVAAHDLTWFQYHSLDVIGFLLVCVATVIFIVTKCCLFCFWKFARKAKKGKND

[2] = target: T1, UDP-glucuronosyltransferase 2B7; assay: Specific activity of expressed human recombinant UGT2B7H; assay type: ADME; conditions: recombinant enzyme

SMILES	Activity [1]	Activity [2]
CN1CC[C@]23c4c5ccc(O)c4O[C@H]2C(=O)CC[C@H]3[C@H]1C5 (stereo in doubt; form 2) [HYDROMORPHONE]	1550 pm/min/mg	–
C=CCN1CC[C@]23c4c5ccc(O)c4O[C@H]2C(=O)CC[C@@]3(O)[C@H]1C5 [NALOXONE]	–	2908 pm/min/mg and 3462 pm/min/mg
CN1CC[C@]23c4c5ccc(O)c4O[C@H]2[C@@H](O)C=C[C@H]3[C@H]1C5 (stereo in doubt; (+)) [MORPHINE]	160 pm/min/mg	–
C=CCN1CC[C@]23c4c5ccc(O)c4O[C@H]2[C@@H](O)C=C[C@H]3[C@H]1C5 [NALORPHINE]	–	1483 pm/min/mg and 1051 pm/min/mg
C[C@]12CC[C@@H](O)C[C@@H]1CC[C@@H]1[C@@H]2CC[C@]2(C)C(=O)CC[C@@H]12 (stereo in doubt; form 1) [ANDROSTERONE]	94 pm/min/mg	114 pm/min/mg
CN1CC[C@]23c4c5ccc(O)c4O[C@H]2C(=O)CC[C@@]3(O)[C@H]1C5 [OXYMORPHONE]	2300 pm/min/mg	2944 pm/min/mg and 3139 pm/min/mg
CC1CC[C@H](C(C)C)[C@@H](O)C1 (stereo partly drawn) [(+)-MENTHOL]	247 pm/min/mg and 147 pm/min/mg	255 pm/min/mg and 191 pm/min/mg
C=C1CC[C@@]2(O)[C@H]3Cc4ccc(O)c5c4[C@@]2(CCN3CC2CC2)[C@H]1O5	625 pm/min/mg	380 pm/min/mg and 412 pm/min/mg
CN1CC[C@]23c4c5ccc(O)c4O[C@H]2[C@@H](O)C=C[C@H]3[C@H]1C5 (stereo in doubt; (-)) [MORPHINE]	3719 pm/min/mg	2536 pm/min/mg and 2968 pm/min/mg
C[C@]12CC[C@H]3[C@@H](CCC4=CC(=O)CC[C@@]43C)[C@@H]1CC[C@@H]2O (stereo in doubt; form 2) [TESTOSTERONE]	0 pm/min/mg	0 pm/min/mg
Oc1ccc2c3c1O[C@H]1[C@@H](O)CC[C@@]4(O)[C@@H](C2)N(CC2CCC2)CC[C@]314 [NALBUPHINE]	1100 pm/min/mg	758 pm/min/mg and 862 pm/min/mg
COc1ccc2c3c1O[C@H]1[C@@H](O)C=C[C@H]4[C@@H](C2)N(C)CC[C@@]341 [CODEINE]	–	80 pm/min/mg and 54 pm/min/mg
CO[C@]12CC[C@@]3(C[C@@H]1[C@](C)(O)C(C)(C)C)[C@H]1Cc4ccc(O)c5c4[C@@]3(CCN1CC1CC1)[C@H]2O5 [BUPRENORPHINE]	–	478 pm/min/mg and 280 pm/min/mg
CN1CC[C@]23CCCC[C@H]2[C@H]1Cc1ccc(O)cc13 [LEVORPHANOL]	33 pm/min/mg and 25 pm/min/mg	–
CC1(C)[C@H]2CC[C@]1(C)[C@H](O)C2 [(-)-BORNEOL]	357 pm/min/mg and 174 pm/min/mg	388 pm/min/mg and 227 pm/min/mg
O=C1CC[C@@]2(O)[C@H]3Cc4ccc(O)c5c4[C@@]2(CCN3CC2CC2)[C@H]1O5 [NALTREXONE]	–	670 pm/min/mg and 662 pm/min/mg
C[C@]12CC[C@H]3[C@@H](CCC4=CC(=O)CC[C@@]43C)[C@@H]1CC[C@H]2O [EPITESTOSTERONE]	468 pm/min/mg and 240 pm/min/mg	360 pm/min/mg
CN1CC[C@]23c4c5ccc(O)c4O[C@H]2C(=O)CC[C@H]3[C@H]1C5 (stereo in doubt; form 1) [HYDROMORPHONE]	530 pm/min/mg	617 pm/min/mg and 856 pm/min/mg
COc1ccc2c3c1O[C@H]1[C@@H](O)C=C[C@H]4[C@@H](C2)NCC[C@@]341 [NORCODEINE]	29 pm/min/mg and 24 pm/min/mg	–
Oc1ccc2c3c1O[C@H]1c4oc5ccccc5c4C[C@@]4(O)[C@@H](C2)N(CC2CC2)CC[C@]314 [NALTRIBEN]	150 pm/min/mg and 97 pm/min/mg	0 pm/min/mg
Oc1ccc2c3c1O[C@H]1c4[nH]c5ccccc5c4C[C@@]4(O)[C@@H](C2)N(CC2CC2)CC[C@]314 [NALTRINDOLE]	453 pm/min/mg	349 pm/min/mg and 456 pm/min/mg
Oc1ccc2c3c1O[C@H]1[C@@H](O)C=C[C@H]4[C@@H](C2)NCC[C@@]341 [NORMORPHINE]	80 pm/min/mg	–
